Test results taken from BigSolDB 2.1.

COc1cccc(Nc2ccccc2)c1
Conditions	solubility (mole fraction)
in 1,2-dichloroethane, 287.65 K	0.149
in 1,2-dichloroethane, 292.3 K	0.182
in 1,2-dichloroethane, 297.35 K	0.216
in 1,2-dichloroethane, 302.55 K	0.258
in 1,2-dichloroethane, 308.65 K	0.312
in 1,2-dichloroethane, 313.15 K	0.355
in 1,2-dichloroethane, 318.85 K	0.401
in 1,2-dichloroethane, 324.25 K	0.443
in 1,2-dichloroethane, 329.55 K	0.502
in 1,2-dichloroethane, 333.75 K	0.545
in acetone, 287.25 K	0.237
in acetone, 292.85 K	0.264
in acetone, 298.95 K	0.3
in acetone, 303.05 K	0.327
in acetone, 308.15 K	0.361
in acetone, 313.05 K	0.407
in acetone, 317.55 K	0.456
in acetone, 321.75 K	0.513
in chloroform, 290.25 K	0.181
in chloroform, 295.25 K	0.218
in chloroform, 300.55 K	0.258
in chloroform, 306.15 K	0.308
in chloroform, 311.5 K	0.35
in chloroform, 315.5 K	0.386
in chloroform, 319.8 K	0.424
in chloroform, 323.13 K	0.456
in ethyl acetate, 287.15 K	0.195
in ethyl acetate, 291.05 K	0.225
in ethyl acetate, 295.55 K	0.254
in ethyl acetate, 300.18 K	0.283
in ethyl acetate, 306.35 K	0.329
in ethyl acetate, 311.25 K	0.366
in ethyl acetate, 316.25 K	0.407
in ethyl acetate, 321.35 K	0.442
in ethyl acetate, 326.25 K	0.5
in ethyl acetate, 330.15 K	0.543
in methanol, 287.25 K	0.0134
in methanol, 291.95 K	0.0174
in methanol, 296.65 K	0.0214
in methanol, 301.15 K	0.0268
in methanol, 305.35 K	0.0339
in methanol, 311.85 K	0.0478
in methanol, 316.25 K	0.0579
in methanol, 321.25 K	0.0724
in methanol, 327.15 K	0.0972

CSc1cccc(Nc2ccccc2)c1
Conditions	solubility (mole fraction)
in 1,2-dichloroethane, 287.65 K	0.189
in 1,2-dichloroethane, 292.3 K	0.231
in 1,2-dichloroethane, 296.85 K	0.278
in 1,2-dichloroethane, 300.95 K	0.311
in 1,2-dichloroethane, 305.35 K	0.36
in 1,2-dichloroethane, 310.45 K	0.415
in 1,2-dichloroethane, 315.15 K	0.466
in 1,2-dichloroethane, 319.75 K	0.515
in 1,2-dichloroethane, 324.25 K	0.562
in 1,2-dichloroethane, 329.55 K	0.615
in 1,2-dichloroethane, 333.75 K	0.654
in acetone, 287.45 K	0.254
in acetone, 292.55 K	0.306
in acetone, 296.15 K	0.343
in acetone, 300.35 K	0.381
in acetone, 305.45 K	0.438
in acetone, 310.65 K	0.5
in acetone, 315.15 K	0.551
in acetone, 321.75 K	0.643
in chloroform, 288.85 K	0.226
in chloroform, 293.35 K	0.263
in chloroform, 297.05 K	0.296
in chloroform, 302 K	0.338
in chloroform, 307.55 K	0.391
in chloroform, 313.25 K	0.449
in chloroform, 318.75 K	0.511
in chloroform, 323.13 K	0.557
in ethyl acetate, 287.85 K	0.231
in ethyl acetate, 292.95 K	0.281
in ethyl acetate, 297.25 K	0.311
in ethyl acetate, 302.15 K	0.357
in ethyl acetate, 306.65 K	0.403
in ethyl acetate, 311.25 K	0.452
in ethyl acetate, 316.45 K	0.516
in ethyl acetate, 321.35 K	0.573
in ethyl acetate, 325.85 K	0.643
in ethyl acetate, 330.15 K	0.711
in methanol, 287.65 K	0.0115
in methanol, 291.55 K	0.016
in methanol, 297.15 K	0.0235
in methanol, 302.4 K	0.0342
in methanol, 307.25 K	0.046
in methanol, 311.95 K	0.0608
in methanol, 316.35 K	0.0761
in methanol, 321.25 K	0.0951
in methanol, 327.15 K	0.121
